Values of other authors, collected in patent US4666715A, “Antibiotic AM-5344-A2 substance and process for the production thereof” (Kitasato Institute, priority 1980, dated 1987).

Key:
Gram-positive bacterium = settings: known antibiotics, literature
[1] = known antibiotics, literature
[2] = known antibiotics, literature; remark: listed apart in the source

## Mekemycin
Gram-positive bacterium
  effective to Gram-positive bacteria: effective
[1]
  acidity (neutral): neutral

## Cerulomycin
Gram-positive bacterium
  effective to Gram-positive bacteria: effective
[1]
  acidity (neutral): neutral

## CO[C@H]1[C@@H](O)[C@@H](C)O[C@H](O[C@H]2[C@H](Oc3cccc4c(O)c5c(=O)oc6ccc(C)c7c(=O)oc(c34)c5c67)O[C@H](C)[C@H](O)[C@@H]2O)[C@@H]1O [Chartreusin]
[2]
  fat solubility: fat-soluble
Gram-positive bacterium
  effective to Gram-positive bacteria: effective
[1]
  acidity (neutral): neutral

## COC(=O)c1cc2cc3cc4cc(CC(=O)O)c(C(=O)/C=C(\O)c5ccccc5O)c(OC)c4c(OC)c3c(O)c2c(=O)o1 [Thermorubin A]
Gram-positive bacterium
  effective to Gram-positive bacteria: effective
[1]
  acidity (neutral): neutral
